Results published in PubChem BioAssay AID330 (DTP/NCI, 2004).
Several values for one entry are separate records, joined by “and”; a condition that tells them apart may be missing. Equal values may be shown once. Toxic doses and inconclusive results are not listed.

System: P388 leukemia ip, CD2F1 mice, survival T/C
Assay: NCI In Vivo Anticancer Drug Screen. Data for tumor model P388 Leukemia (intraperitoneal) in CD2F1 (CDF1) mice
Settings: endpoint: median survival time, higher = longer survival
In short: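 Mice carrying the transplanted tumor received test compound or vehicle. Survival was recorded in each group, and the value is the treated-group measurement divided by that of the vehicle-treated control group.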

[1] = dose: 12.5 mg/kg/injection, schedule: Q01DX009 (ip), vehicle: Klucel (hydroxypropylcellulose) (HPC)
[2] = dose: 25.0 mg/kg/injection, schedule: Q01DX009 (ip), vehicle: saline with Tween-80
[3] = dose: 50.0 mg/kg/injection, schedule: Q01DX009 (ip), vehicle: saline with Tween-80
[4] = dose: 100.0 mg/kg/injection, schedule: Q04DX003 (ip), vehicle: saline with Tween-80
[5] = dose: 200.0 mg/kg/injection, schedule: Q04DX003 (ip), vehicle: saline with Tween-80
[6] = dose: 400.0 mg/kg/injection, schedule: Q04DX003 (ip), vehicle: saline with Tween-80
[7] = dose: 100.0 mg/kg/injection, schedule: Q01DX009 (ip), vehicle: saline with Tween-80
[8] = dose: 200.0 mg/kg/injection, schedule: Q01DX009 (ip), vehicle: saline with Tween-80
[9] = dose: 100.0 mg/kg/injection, schedule: Q01DX001 (ip), vehicle: Klucel (hydroxypropylcellulose) (HPC)
[10] = dose: 200.0 mg/kg/injection, schedule: Q01DX001 (ip), vehicle: Klucel (hydroxypropylcellulose) (HPC)
[11] = dose: 400.0 mg/kg/injection, schedule: Q01DX001 (ip), vehicle: Klucel (hydroxypropylcellulose) (HPC)
[12] = dose: 50.0 mg/kg/injection, schedule: Q01DX009 (ip), vehicle: Klucel (hydroxypropylcellulose) (HPC)
[13] = dose: 100.0 mg/kg/injection, schedule: Q01DX009 (ip), vehicle: Klucel (hydroxypropylcellulose) (HPC)
[14] = dose: 200.0 mg/kg/injection, schedule: Q01DX009 (ip), vehicle: Klucel (hydroxypropylcellulose) (HPC)
[15] = dose: 12.5 mg/kg/injection, schedule: Q01DX009 (ip), vehicle: saline
[16] = dose: 25.0 mg/kg/injection, schedule: Q01DX009 (ip), vehicle: saline
[17] = dose: 50.0 mg/kg/injection, schedule: Q01DX009 (ip), vehicle: saline
[18] = dose: 50.0 mg/kg/injection, schedule: Q01DX005 (ip), vehicle: saline with Tween-80
[19] = dose: 100.0 mg/kg/injection, schedule: Q01DX005 (ip), vehicle: saline with Tween-80
[20] = dose: 100.0 mg/kg/injection, schedule: Q01DX009 (ip), vehicle: saline
[21] = dose: 50.0 mg/kg/injection, schedule: Q01DX005 (ip), vehicle: Klucel (hydroxypropylcellulose) (HPC)
[22] = dose: 100.0 mg/kg/injection, schedule: Q01DX005 (ip), vehicle: Klucel (hydroxypropylcellulose) (HPC)
[23] = dose: 200.0 mg/kg/injection, schedule: Q01DX005 (ip), vehicle: Klucel (hydroxypropylcellulose) (HPC)

C=CCNSc1ccccc1
T/C [1]: 112 % of control | T/C (dose: 25.0 mg/kg/injection, schedule: Q01DX009 (ip), vehicle: Klucel (hydroxypropylcellulose) (HPC)): 109 % of control

CN(C)c1ccc(/C=C/c2ccnc3cc(Cl)ccc23)cc1
T/C (dose: 12.5 mg/kg/injection, schedule: Q01DX009 (ip), vehicle: saline with Tween-80): 106 % of control | T/C [2]: 116 % of control | T/C [3]: 119 % of control

CCCCN(CCCC)CCC(=O)OCC
T/C [4]: 104 % of control | T/C [5]: 100 % of control | T/C [6]: 109 % of control

CCCCCCCCCCCCOC(=O)c1ccc(I)cc1
T/C [3]: 97 % of control | T/C [7]: 97 % of control | T/C [8]: 102 % of control

COc1cc(/C=C/C(N)=O)cc(OC)c1OC
T/C (dose: 50.0 mg/kg/injection, schedule: Q04DX003 (ip), vehicle: saline with Tween-80): 94 % of control | T/C [4]: 90 % of control | T/C [5]: 99 % of control | T/C [6]: 100 % of control

COc1cc(-c2coc3cc(O)ccc3c2=O)c(O)c(OC)c1OC
T/C [9]: 101 % of control | T/C [10]: 101 % of control | T/C [11]: 102 % of control

C/C=C1/CN2CCc3c([nH]c4ccccc34)C2CC1C(Cc1c[n+]2c(c3[nH]c4ccccc4c13)CC1C(C(=O)OC)=COC(C)C1C2)C(=O)OC (centres undefined)
T/C [2]: 91 % of control | T/C [3]: 89 % of control | T/C [7]: 90 % of control

CC(=O)OC1CC(c2ccccc2)=NO1 (centres undefined)
T/C (dose: 60.0 mg/kg/injection, schedule: Q01DX005 (ip), vehicle: Klucel (hydroxypropylcellulose) (HPC)): 106 % of control | T/C (dose: 120.0 mg/kg/injection, schedule: Q01DX005 (ip), vehicle: Klucel (hydroxypropylcellulose) (HPC)): 95 % of control | T/C (dose: 240.0 mg/kg/injection, schedule: Q01DX005 (ip), vehicle: Klucel (hydroxypropylcellulose) (HPC)): 103 % of control

O=C(O)c1ccc(C(=O)N(CCP(c2ccccc2)c2ccccc2)CCP(c2ccccc2)c2ccccc2)cc1C(=O)O
T/C [12]: 110 % of control | T/C [13]: 90 % of control | T/C [14]: 94 % of control

O=S(=O)(O)O.[N-]=C(N)/N=C(\[NH-])N.[N-]=C(N)/N=C(\[NH-])N.[N-]=C(N)NC(=[N-])N.[Rh+3]
T/C [15]: 100 % of control | T/C [16]: 103 % of control | T/C [17]: 107 % of control

ClCCN(CCCl)c1ccc2c3c(cccc13)-c1ccccc1-2
T/C (dose: 25.0 mg/kg/injection, schedule: Q04DX003 (ip), vehicle: saline with Tween-80): 104 % of control | T/C [3]: 154 % of control | T/C [7]: 186 % of control | T/C (dose: 132.0 mg/kg/injection, schedule: Q04DX003 (ip), vehicle: saline with Tween-80): 159 % of control | T/C [8]: 86 % of control | T/C [5]: 177 % of control and 212 % of control | T/C (dose: 300.0 mg/kg/injection, schedule: Q04DX003 (ip), vehicle: saline with Tween-80): 177 % of control

O=[N+]([O-])c1ccc(OC2OCC(O)C(O)C2O)cc1 (centres undefined)
T/C (dose: 60.0 mg/kg/injection, schedule: Q01DX005 (ip), vehicle: saline): 97 % of control | T/C (dose: 120.0 mg/kg/injection, schedule: Q01DX005 (ip), vehicle: saline): 88 % of control | T/C (dose: 240.0 mg/kg/injection, schedule: Q01DX005 (ip), vehicle: saline): 89 % of control

CCOC(=O)C1=C(N)C2CC(C)=C(C)CN2C1 (centres undefined)
T/C [18]: 98 % of control | T/C [19]: 100 % of control

CCOC(=O)c1ccc(NC(=NC)c2ccccc2)cc1
T/C [3]: 108 % of control | T/C [7]: 105 % of control | T/C [8]: 97 % of control

ClCCN(CCCl)c1ccc(CN2CCCCCC2)cc1
T/C (dose: 6.25 mg/kg/injection, schedule: Q01DX009 (ip), vehicle: saline): 111 % of control | T/C [15]: 114 % of control | T/C [16]: 116 % of control

COC1=C(C)C(=O)c2c(c(C=O)c(Cl)n2C)C1=O
T/C [9]: 99 % of control | T/C [10]: 103 % of control

O=C(O)Cc1cc(Cl)ccc1C(=O)O
T/C [18]: 97 % of control | T/C [19]: 97 % of control | T/C (dose: 200.0 mg/kg/injection, schedule: Q01DX005 (ip), vehicle: saline with Tween-80): 97 % of control

O=C1Cc2ccccc2C(c2ccc(Cl)cc2Cl)N1 (centres undefined)
T/C [17]: 98 % of control | T/C [20]: 98 % of control | T/C (dose: 200.0 mg/kg/injection, schedule: Q01DX009 (ip), vehicle: saline): 100 % of control

Cc1nc2c(cnn2C)c(=O)n1-c1cccc(Cl)c1
T/C [21]: 98 % of control | T/C [22]: 100 % of control | T/C [23]: 87 % of control

CC(=O)OCc1cc(=O)n(C)c2c3c4c(cc12)c(C)cc(=O)n4CO3
T/C [1]: 123 % of control | T/C (dose: 25.0 mg/kg/injection, schedule: Q03HX015 (ip), vehicle: Klucel (hydroxypropylcellulose) (HPC)): 173 % of control | T/C (dose: 25.0 mg/kg/injection, schedule: Q04DX002 (ip), vehicle: Klucel (hydroxypropylcellulose) (HPC)): 121 % of control | T/C (dose: 25.0 mg/kg/injection, schedule: Q06HX010 (ip), vehicle: Klucel (hydroxypropylcellulose) (HPC)): 152 % of control | T/C (dose: 50.0 mg/kg/injection, schedule: Q01DX001 (ip), vehicle: Klucel (hydroxypropylcellulose) (HPC)): 119 % of control and 124 % of control | T/C [12]: 157 % of control | T/C (dose: 50.0 mg/kg/injection, schedule: Q06HX010 (ip), vehicle: Klucel (hydroxypropylcellulose) (HPC)): 105 % of control | T/C [13]: 86 % of control | T/C [10]: 155 % of control | T/C (dose: 200.0 mg/kg/injection, schedule: Q04DX002 (ip), vehicle: Klucel (hydroxypropylcellulose) (HPC)): 168 % of control | T/C [11]: 157 % of control and 176 % of control | T/C (dose: 800.0 mg/kg/injection, schedule: Q01DX001 (ip), vehicle: Klucel (hydroxypropylcellulose) (HPC)): 168 % of control

CN(O)/C=C1\C(=O)C=Cc2ccccc21
T/C [21]: 90 % of control | T/C [22]: 94 % of control | T/C [23]: 90 % of control

COC(=O)CCC(Cl)(Cl)Cl
T/C [12]: 102 % of control | T/C [13]: 102 % of control | T/C [14]: 100 % of control

ClC(Cl)=Nc1ccc(Cl)cc1Cl
T/C [17]: 100 % of control | T/C [20]: 89 % of control

O=C(O)/C=C\C(=O)NCCCCCC(=O)O
T/C [12]: 102 % of control | T/C [13]: 103 % of control | T/C [14]: 105 % of control

CC(C)N1CSC(=S)NCCNC(=S)SC1
T/C [21]: 101 % of control | T/C [22]: 110 % of control | T/C [23]: 110 % of control

c1ccc(Cc2ncnc3nc[nH]c23)cc1
T/C (dose: 2.5 mg/kg/injection, schedule: Q01DX009 (ip), vehicle: saline with Tween-80): 111 % of control | T/C (dose: 5.0 mg/kg/injection, schedule: Q01DX009 (ip), vehicle: saline with Tween-80): 111 % of control | T/C (dose: 10.0 mg/kg/injection, schedule: Q01DX009 (ip), vehicle: saline with Tween-80): 111 % of control | T/C (dose: 20.0 mg/kg/injection, schedule: Q01DX009 (ip), vehicle: saline with Tween-80): 105 % of control and 107 % of control and 110 % of control | T/C (dose: 40.0 mg/kg/injection, schedule: Q01DX009 (ip), vehicle: saline with Tween-80): 98 % of control and 103 % of control | T/C (dose: 80.0 mg/kg/injection, schedule: Q01DX009 (ip), vehicle: saline with Tween-80): 110 % of control and 111 % of control and 91 % of control | T/C (dose: 160.0 mg/kg/injection, schedule: Q01DX009 (ip), vehicle: saline with Tween-80): 95 % of control

O=C1c2cccc3c2C2(O)c4c1cccc4C(=O)c1cccc(c12)C3=O
T/C [3]: 100 % of control | T/C [7]: 90 % of control
